# Measured values published in patent publication US20190308988A1, “OPIOID RECEPTOR ANTAGONIST PRODRUGS” (Nirsum Laboratories, Inc., priority 2017, published 2019).
# Assays:
# [1] = Solubility determination in oil (Table 10); details: thermodynamic from solid; for solubility thermodynamic: water, Equilibrium solubility: Water
# Method: A known amount of test substance (˜40 mg) was weighed into the vial, 100 μL of oil was added and heated to 60° C. and then system was slurried to reach equilibrium. […] Extra oil was added into the vial once compound precipitated out and then the system was re-equilibrated at 1000 rpm at room temperature (25° C.). Final concentration was determined by HPLC method as described below in Table 6a and 6b.
# [2] = Polymorph screening of solid state drug substances (Table 23); format: physicochemical; details: stirred 50 °C 72 hours; for Dry method and appearance: dried solid
# [3] = 40 °C, oil or lipid, Approximate Solubility in Excipient: Cottonseed oil, Heating Temp. 40 °C, Obs. Temp. 40 °C
# [4] = 40 °C, oil or lipid, Approximate Solubility in Excipient: Cottonseed oil, Heating Temp. 60 °C, Obs. Temp. 40 °C
# [5] = 40 °C, oil or lipid, Approximate Solubility in Excipient: Sesame oil, Heating Temp. 40 °C, Obs. Temp. 40 °C
# [6] = 40 °C, oil or lipid, Approximate Solubility in Excipient: Sesame oil, Heating Temp. 60 °C, Obs. Temp. 40 °C
# [7] = 40 °C, organic solvent or mixture, Approximate Solubility in Excipient: Ethanol, Heating Temp. 40 °C, Obs. Temp. 40 °C
# [8] = 40 °C, Heating Temp. 40 °C, Obs. Temp. 40 °C
SMILES,"solubility [1, 3] [mg/mL]","solubility [1, 4] [mg/mL]","solubility [1, 5] [mg/mL]","solubility [1, 6] [mg/mL]","solubility [1, 7] [mg/mL]","solubility thermodynamic [1, 8] [mg/mL]","solubility thermodynamic ([1]; after slurry in EtOAc, temperatures N/A) [mg/mL]","solubility thermodynamic ([1]; after slurry in Heptane, temperatures N/A) [mg/mL]",XRPD results (Dried) ([2]; Acetone),Dry method and appearance ([2]; Acetone),XRPD results (Dried) ([2]; EtOAc),Dry method and appearance ([2]; EtOAc),XRPD results (Dried) ([2]; Heptane),Dry method and appearance ([2]; Heptane),XRPD results (Dried) ([2]; Isopropanol),Dry method and appearance ([2]; Isopropanol),XRPD results (Dried) ([2]; MTBE),Dry method and appearance ([2]; MTBE),"solubility thermodynamic ([1]; 40 °C, Heating Temp. 60 °C, Obs. Temp. 40 °C) [mg/mL]"
"C=C1CC[C@@]2(O)C3Cc4ccc(OC(=O)CCCCCCCCCCCCCCCCCCCCC)c5c4[C@@]2(CCN3CC2CC2)[C@H]1O5 [Compound 14, (4aS,7aS,12bS)-3-(cyclopropylmethyl)-4a-hydroxy-7-methylene-2,3,4,4a,5,6,7,7a-octahydro-1H-4,12-methanobenzofuro[3,2-e]isoquinolin-9-yl docosanoate]",< 50,< 25,< 51,< 25,69 to 83,0.01,< 0.0005,< 0.0005,Pattern A,Evaporation/white powder,Pattern A,Evaporation/white powder,Pattern B,Centrifugation/white powder,Pattern A,Evaporation/white powder,Pattern A,Evaporation/white powder,–
"C=C1CC[C@@]2(O)C3Cc4ccc(OC(=O)CCCCCCCCCCCCCCCCCCC)c5c4[C@@]2(CCN3CC2CC2)[C@H]1O5 [Compound 16, (4aS,7aS,12bS)-3-(cyclopropylmethyl)-4a-hydroxy-7-methylene-2,3,4,4a,5,6,7,7a-octahydro-1H-4,12-methanobenzofuro[3,2-e]isoquinolin-9-yl icosanoate]",57 to 67,201 to 403,68 to 81,202 to 404,< 25,0.206,–,–,Pattern A,Evaporation/white powder,Pattern A,Evaporation/white powder,Pattern A,Centrifugation/white powder,Pattern A,Centrifugation/white powder,Pattern A,Evaporation/white powder,0.011
"C=C1CC[C@@]2(O)C3Cc4ccc(OC(=O)OCCCCCCCCCCCCCCCC)c5c4[C@@]2(CCN3CC2CC2)[C@H]1O5 [Compound 19, (4aS,7aS,12bS)-3-(cyclopropylmethyl)-4a-hydroxy-7-methylene-2,3,4,4a,5,6,7,7a-octahydro-1H-4,12-methanobenzofuro[3,2-e]isoquinolin-9-yl hexadecyl carbonate]",67 to 80,–,103 to 137,–,27 to 42,0.0468,–,–,Pattern A,Evaporation/white powder,Pattern A,Evaporation/white powder,Pattern A,Evaporation/white powder,Pattern A,Evaporation/white powder,Pattern A,Evaporation/white powder,–
